# Tested on: IGROV1 complex spheroids (HUVEC, MSC), viability % test/control
# Assay: Anticancer human tumor IGROV1 cell line growth inhibition [GQUAD];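 further: spheroids exposed to compounds for 7 days before readout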;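 on viability, T/C: 100% = DMSO vehicle control viability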
# Conditions: for IC50: curve of first compound; for viability, T/C: stronger effect = lower value
# Outline: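 Tumor cells were grown as complex spheroids with HUVEC endothelial cells and mesenchymal stem cells as stroma. G-quadruplex stabilizers were combined with targeted agents over half-log dilutions from near the clinical Cmax, or from 10 microM.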
# [1] = second compound 0.0316 µM, first compound 0.0316 µM
# [2] = second compound 0.0316 µM, first compound 0.1 µM
# [3] = second compound 0.0316 µM, first compound 0.316 µM
# [4] = second compound 0.0316 µM, first compound 1 µM
# [5] = second compound 0.0316 µM, first compound 3.16 µM
# [6] = second compound 0.0316 µM, first compound 10 µM
# [7] = second compound 0.1 µM, first compound 0.0316 µM
# [8] = second compound 0.1 µM, first compound 0.1 µM
# [9] = second compound 0.1 µM, first compound 0.316 µM
# [10] = second compound 0.1 µM, first compound 1 µM
# [11] = second compound 0.1 µM, first compound 3.16 µM
# [12] = second compound 0.1 µM, first compound 10 µM
# [13] = second compound 0.316 µM, first compound 0.0316 µM
# [14] = second compound 0.316 µM, first compound 0.1 µM
# [15] = second compound 0.316 µM, first compound 0.316 µM
# [16] = second compound 0.316 µM, first compound 1 µM
# [17] = second compound 0.316 µM, first compound 3.16 µM
# [18] = second compound 0.316 µM, first compound 10 µM
# [19] = second compound 1 µM, first compound 0.0316 µM
# [20] = second compound 1 µM, first compound 0.1 µM
# [21] = second compound 1 µM, first compound 0.316 µM
# [22] = second compound 1 µM, first compound 1 µM
# [23] = second compound 1 µM, first compound 3.16 µM
# [24] = second compound 1 µM, first compound 10 µM
# [25] = second compound 3.16 µM, first compound 0.0316 µM
# [26] = second compound 3.16 µM, first compound 0.1 µM
# [27] = second compound 3.16 µM, first compound 0.316 µM
# [28] = second compound 3.16 µM, first compound 1 µM
# [29] = second compound 3.16 µM, first compound 3.16 µM
# [30] = second compound 3.16 µM, first compound 10 µM
# [31] = second compound 10 µM, first compound 0.0316 µM
# [32] = second compound 10 µM, first compound 0.1 µM
# [33] = second compound 10 µM, first compound 0.316 µM
# [34] = second compound 10 µM, first compound 1 µM
# [35] = second compound 10 µM, first compound 3.16 µM
# [36] = second compound 10 µM, first compound 10 µM
smiles,measurement,setting,value
CC(=O)O[C@H]1C(=O)[C@@]2(C)[C@H]([C@H](OC(=O)c3ccccc3)[C@]3(O)C[C@H](OC(=O)[C@H](O)[C@@H](NC(=O)c4ccccc4)c4ccccc4)C(C)=C1C3(C)C)[C@]1(OC(C)=O)CO[C@@H]1C[C@@H]2O + Cc1cnc(CNC(=O)c2c(=O)c3ccc(N4CCCN(C)CC4)nc3n3c2sc2ccccc23)cn1,IC50,second compound 0.0316 µM,< 31.6 nM
same,IC50,second compound 0.1 µM,< 31.6 nM
same,IC50,second compound 0.316 µM,< 31.6 nM
same,IC50,second compound 1 µM,< 31.6 nM
same,IC50,second compound 3.16 µM,< 31.6 nM
same,IC50,second compound 10 µM,< 31.6 nM
same,"viability, T/C",[1],6.85%
same,"viability, T/C",[2],7.2%
same,"viability, T/C",[3],5.93%
same,"viability, T/C",[4],4.84%
same,"viability, T/C",[5],5.81%
same,"viability, T/C",[6],5%
same,"viability, T/C",[7],8.41%
same,"viability, T/C",[8],6.77%
same,"viability, T/C",[9],4.59%
same,"viability, T/C",[10],5.47%
same,"viability, T/C",[11],5.23%
same,"viability, T/C",[12],5.1%
same,"viability, T/C",[13],7.94%
same,"viability, T/C",[14],7.36%
same,"viability, T/C",[15],5.21%
same,"viability, T/C",[16],5.4%
same,"viability, T/C",[17],5.37%
same,"viability, T/C",[18],5.62%
same,"viability, T/C",[19],8.3%
same,"viability, T/C",[20],8.57%
same,"viability, T/C",[21],6.36%
same,"viability, T/C",[22],6.43%
same,"viability, T/C",[23],6.28%
same,"viability, T/C",[24],5.79%
same,"viability, T/C",[25],7.17%
same,"viability, T/C",[26],6.44%
same,"viability, T/C",[27],7.03%
same,"viability, T/C",[28],6.22%
same,"viability, T/C",[29],6.75%
same,"viability, T/C",[30],5.4%
same,"viability, T/C",[31],5.82%
same,"viability, T/C",[32],6.66%
same,"viability, T/C",[33],6.12%
same,"viability, T/C",[34],6.29%
same,"viability, T/C",[35],6.72%
same,"viability, T/C",[36],6.2%
CC[C@@]1(O)C(=O)OCc2c1cc1n(c2=O)Cc2cc3c(CN(C)C)c(O)ccc3nc2-1 + Cc1cnc(CNC(=O)c2c(=O)c3ccc(N4CCCN(C)CC4)nc3n3c2sc2ccccc23)cn1,IC50,second compound 0.0316 µM,13.3 nM
same,IC50,second compound 0.1 µM,< 0.999 nM
same,IC50,second compound 0.316 µM,< 0.999 nM
same,IC50,second compound 1 µM,< 0.999 nM
same,IC50,second compound 3.16 µM,< 0.999 nM
same,IC50,second compound 10 µM,< 0.999 nM
same,"viability, T/C","second compound 0.0316 µM, first compound 0.000999 µM",69.8%
same,"viability, T/C","second compound 0.0316 µM, first compound 0.00316 µM",57.8%
same,"viability, T/C","second compound 0.0316 µM, first compound 0.00999 µM",60.4%
same,"viability, T/C",[1],19.8%
same,"viability, T/C","second compound 0.0316 µM, first compound 0.0999 µM",12.4%
same,"viability, T/C",[3],8.43%
same,"viability, T/C","second compound 0.1 µM, first compound 0.000999 µM",33%
same,"viability, T/C","second compound 0.1 µM, first compound 0.00316 µM",34.3%
same,"viability, T/C","second compound 0.1 µM, first compound 0.00999 µM",31.3%
same,"viability, T/C",[7],15.8%
same,"viability, T/C","second compound 0.1 µM, first compound 0.0999 µM",12%
same,"viability, T/C",[9],9.62%
same,"viability, T/C","second compound 0.316 µM, first compound 0.000999 µM",24.3%
same,"viability, T/C","second compound 0.316 µM, first compound 0.00316 µM",29.3%
same,"viability, T/C","second compound 0.316 µM, first compound 0.00999 µM",18%
same,"viability, T/C",[13],12.4%
same,"viability, T/C","second compound 0.316 µM, first compound 0.0999 µM",11.9%
same,"viability, T/C",[15],8.87%
same,"viability, T/C","second compound 1 µM, first compound 0.000999 µM",21.8%
same,"viability, T/C","second compound 1 µM, first compound 0.00316 µM",18.1%
same,"viability, T/C","second compound 1 µM, first compound 0.00999 µM",12.3%
same,"viability, T/C",[19],11.1%
same,"viability, T/C","second compound 1 µM, first compound 0.0999 µM",13.1%
same,"viability, T/C",[21],9.29%
same,"viability, T/C","second compound 3.16 µM, first compound 0.000999 µM",10.1%
same,"viability, T/C","second compound 3.16 µM, first compound 0.00316 µM",8.55%
same,"viability, T/C","second compound 3.16 µM, first compound 0.00999 µM",9.85%
same,"viability, T/C",[25],8.98%
same,"viability, T/C","second compound 3.16 µM, first compound 0.0999 µM",10.3%
same,"viability, T/C",[27],8.29%
same,"viability, T/C","second compound 10 µM, first compound 0.000999 µM",11.6%
same,"viability, T/C","second compound 10 µM, first compound 0.00316 µM",9.45%
same,"viability, T/C","second compound 10 µM, first compound 0.00999 µM",11.2%
same,"viability, T/C",[31],8.53%
same,"viability, T/C","second compound 10 µM, first compound 0.0999 µM",10%
same,"viability, T/C",[33],9.32%
COc1cc(C2c3cc4c(cc3C(OC3OC5COC(C)OC5C(O)C3O)C3COC(=O)C23)OCO4)cc(OC)c1O (stereo unspecified) + Cc1cnc(CNC(=O)c2c(=O)c3ccc(N4CCCN(C)CC4)nc3n3c2sc2ccccc23)cn1,IC50,second compound 0.0316 µM,56.4 nM
same,IC50,second compound 0.1 µM,< 31.6 nM
same,IC50,second compound 0.316 µM,< 31.6 nM
same,IC50,second compound 1 µM,< 31.6 nM
same,IC50,second compound 3.16 µM,< 31.6 nM
same,IC50,second compound 10 µM,< 31.6 nM
same,"viability, T/C",[1],67.3%
same,"viability, T/C",[2],32.8%
same,"viability, T/C",[3],16.3%
same,"viability, T/C",[4],13.5%
same,"viability, T/C",[5],8.96%
same,"viability, T/C",[6],4.09%
same,"viability, T/C",[7],37.6%
same,"viability, T/C",[8],27.9%
same,"viability, T/C",[9],16%
same,"viability, T/C",[10],10.6%
same,"viability, T/C",[11],8.64%
same,"viability, T/C",[12],5.71%
same,"viability, T/C",[13],25.1%
same,"viability, T/C",[14],19%
same,"viability, T/C",[15],14.4%
same,"viability, T/C",[16],8.91%
same,"viability, T/C",[17],8.97%
same,"viability, T/C",[18],5.79%
same,"viability, T/C",[19],12.8%
same,"viability, T/C",[20],13.7%
same,"viability, T/C",[21],13.6%
same,"viability, T/C",[22],11%
same,"viability, T/C",[23],7.71%
same,"viability, T/C",[24],6.49%
same,"viability, T/C",[25],9.53%
same,"viability, T/C",[26],11.8%
same,"viability, T/C",[27],9.99%
same,"viability, T/C",[28],9.79%
same,"viability, T/C",[29],9.02%
same,"viability, T/C",[30],5.67%
same,"viability, T/C",[31],9.66%
same,"viability, T/C",[32],11%
same,"viability, T/C",[33],10.7%
same,"viability, T/C",[34],9.61%
same,"viability, T/C",[35],9.67%
same,"viability, T/C",[36],6.31%

# Reference: PubChem BioAssay AID2060486 (Molecular Pharmacology Branch, DTP, NCI, 2025)
